One assay has as its system B16BL6 melanoma cells. Also on record: key: +++: + graded effectiveness; ++: + graded effectiveness; + graded effectiveness; - not effective. Conditions: cited from earlier work.
The next assay relates to platelet activation. Also noted: key: +++: + graded effectiveness; ++: + graded effectiveness; + graded effectiveness; - not effective. Conditions: cited from earlier work.
The test system of a further assay is protein kinase C. Also on record: key: +++: + graded effectiveness; ++: + graded effectiveness; + graded effectiveness; - not effective. Conditions: cited from earlier work.
A further assay deals with tumor cells. As to the kind of experiment: Experimental metastasis model: intravenous injection of tumor cells, lung tumor colonies. It is filed as in vivo. Conditions: tumor cells i.v.; number of lung tumor colonies. From the text: (§1) In either model, the number of lung tumor colonies is ascertained macroscopically and microscopically following a course of repeated liposome administration.

In a further assay the test system is BL6 cell line. Description: Spontaneous metastasis model: subcutaneous BL6 cells, lung colonization. It is filed as in vivo. Conditions: mice, BL6 cells s.c.; liposomes i.v. on days 5, 10, 15, 20, 25, 30; primary tumor excised day 21; assessed day 35. The protocol: As an example, mice were injected subcutaneously with the metastatic and invasive BL6 cell line (Hart et al., Amer. J. Path., 97, 587, 1979; Poote et al., Canc. Res., 42, 2770, 1982) (1×10^5 cells in 0.05 ml of Dulbecco-modified Eagle's medium). A single intravenous injection of the 10:1 liposomal TMS/Sph-1-P composition described hereinabove was administered on days 5, 10, 15, 20, 25 and 30. The primary tumor was excised on day 21 and lung colonization was assessed on day 35. […] Controls comprised liposomes containing TMS alone, liposomes containing Sph-1-P alone, liposomes containing medium or medium alone with no liposomes.
Then the instant composition encapsulated in liposomes is administered to the hosts, see FIG. 9A.
as §1

Where [1] appears, read: preincubation with free derivative.

Read-outs that look alike come from different tables or passages of the source.

As for `CCCCCCCCCCCCCCC[C@@H](O)[C@H](CO)[N+](C)(C)C` [DHTMS], the Inhibition of metastasis entry in the assay with B16BL6 melanoma cells (liposomal formulation was used) is “+”. The “Inhibition of PA” value in the assay on platelet activation is on record as “++”. Besides, the PKC inhibition result with protein kinase C was “+++”.
As to `C[N+](C)(C)[C@@H](CO)[C@H](O)/C=C/CCCCCCCCCCCCC(=O)O` [Carboxy TMS], the Inhibition of metastasis entry with B16BL6 melanoma cells (setting [1]) was “-”. Moreover, the “Inhibition of PA” value in the assay with platelet activation is recorded as “-”. Besides, the PKC inhibition entry in the assay with protein kinase C is “-”.
Turning to `CCCCCCCCCCCCCC#C[C@@H](O)[C@H](CO)[N+](C)(C)C` [4-alkyn-TMS], in the assay on B16BL6 melanoma cells (no footnote on formulation), the Inhibition of metastasis entry was “+”. The “Inhibition of PA” value with platelet activation is recorded as “++”. For the same molecule, in the assay on protein kinase C, the PKC inhibition result was “+++”.
Turning to `CCCCCCCCCCCCC/C=C/[C@@H](O)[C@H](CO)[N+](C)(C)C` [TMS, N,N,N-trimethylsphingosine], the “Effect in the experimental metastasis model” value in the assay with tumor cells is “strong effect”. For the same molecule, in the assay on B16BL6 melanoma cells (free derivative and liposomal formulation were used), the Inhibition of metastasis result is given as “+++”. In the assay with platelet activation, the “Inhibition of PA” value is listed as “+++”. In addition, the PKC inhibition result in the assay with protein kinase C is recorded as “+++”.
Turning to `CCCCCCCCCCCCC/C=C/[C@@H](O)[C@@H](N)COP(=O)(O)O` [Sph-1-P, sphingosine-1-phosphate], the “Lung colony number (lung colonization)” value in the assay with BL6 cell line is “no different in effect from medium alone or liposomes containing medium only”.
Consider `CCCCCCCCCCCCCC(F)/C=C/[C@H](CO)[N+](C)(C)C` (some centres unmarked) [5F-TMS], for which the Inhibition of metastasis entry in the assay on B16BL6 melanoma cells (no footnote on formulation) was “+++”. The “Inhibition of PA” value in the assay with platelet activation was “+++”. In addition, in the assay on protein kinase C, the PKC inhibition entry is “+++”.
Take `C[N+](C)(C)[C@@H](CO)[C@H](O)c1ccccc1` [NTPS]: the Inhibition of metastasis result with B16BL6 melanoma cells (setting [1]) is recorded as “-”. The “Inhibition of PA” value in the assay on platelet activation is recorded as “-”. Besides, the PKC inhibition result with protein kinase C is on record as “-”.
For the molecule `COC(=O)CCCCCCCCCCCC/C=C/[C@@H](O)[C@H](CO)[N+](C)(C)C` [Methylcarboxy TMS], the Inhibition of metastasis entry in the assay on B16BL6 melanoma cells (setting [1]) is on record as “-”. Also, the “Inhibition of PA” value in the assay with platelet activation is reported as “-”. Further, the PKC inhibition entry in the assay on protein kinase C is “-”.

Values taken from patent US5627171A, “Sphingosine-1-phosphate/trimethylsphingosine composition” (Oncomembrane, Inc., priority 1994, dated 1997).
